# Measured values as given in US20250144094A1 (Erasca, Inc., priority 2021, published 2025).
# Biological target: Recombinant human ULK1 (1-649) (Homo sapiens (Human), UniProt O75385)
# Test: ULK1 ADP Glo kinase activity assay (MBP substrate)
# Settings: 25° C., 40 minutes, read-out: ULK1 biochemical IC50
# Summary of the method: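 GST-tagged ULK1 (1-649) from Sf9 cells phosphorylated MBP, with ATP, for 40 min at 25 °C across a 12-point series from 10 uM. ADP formed was quantified by ADP-Glo luminescence against DMSO controls. IC50 came from a four-parameter variable-slope fit of log concentration.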
# Sequence of Recombinant human ULK1 (1-649) (O75385 1-649): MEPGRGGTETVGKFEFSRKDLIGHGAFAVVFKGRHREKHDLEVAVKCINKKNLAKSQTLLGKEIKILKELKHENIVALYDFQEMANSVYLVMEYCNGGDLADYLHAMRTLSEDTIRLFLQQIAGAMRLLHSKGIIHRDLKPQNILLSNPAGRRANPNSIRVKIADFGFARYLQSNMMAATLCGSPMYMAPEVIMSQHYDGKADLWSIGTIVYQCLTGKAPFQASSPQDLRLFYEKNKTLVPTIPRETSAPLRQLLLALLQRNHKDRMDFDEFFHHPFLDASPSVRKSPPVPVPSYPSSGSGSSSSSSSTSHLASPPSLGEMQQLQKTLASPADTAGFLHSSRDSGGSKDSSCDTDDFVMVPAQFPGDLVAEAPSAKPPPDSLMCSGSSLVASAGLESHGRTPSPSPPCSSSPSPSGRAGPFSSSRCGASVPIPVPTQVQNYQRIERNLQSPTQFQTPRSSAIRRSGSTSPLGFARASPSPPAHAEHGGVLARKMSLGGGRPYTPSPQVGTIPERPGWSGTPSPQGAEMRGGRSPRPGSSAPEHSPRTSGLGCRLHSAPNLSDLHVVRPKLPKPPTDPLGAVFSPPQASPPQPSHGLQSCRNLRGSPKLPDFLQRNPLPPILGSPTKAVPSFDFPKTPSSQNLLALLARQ
row,SMILES,IC50 [nM]
1,"CS(=O)(=O)c1csc(-c2nc(Nc3cc4c(cc3C3CC3)CNCC4)ncc2C(F)(F)F)c1 [Example 132, 7-cyclopropyl-N-(4-(4-(methylsulfonyl)thiophen-2-yl)-5-(trifluoromethyl)pyrimidin-2-yl)-1,2,3,4-tetrahydroisoquinolin-6-amine]",≤ 10
2,"CN1CCCc2cc(Nc3ncc(C(F)(F)F)c(-c4cc(S(C)(=O)=O)cs4)n3)c(Cl)cc2C1 [Example 133, 8-chloro-2-methyl-N-(4-(4-(methylsulfonyl)thiophen-2-yl)-5-(trifluoromethyl)pyrimidin-2-yl)-2,3,4,5-tetrahydro-1H-benzo[c]azepin-7-amine]",≤ 10
3,"CCN1CCS(=O)(=O)c2cc(-c3nc(Nc4cc5c(cc4Cl)CNCC5)ncc3C(F)(F)F)sc2C1=O [Example 135, 7-(2-((7-chloro-1,2,3,4-tetrahydroisoquinolin-6-yl)amino)-5-(trifluoromethyl)pyrimidin-4-yl)-4-ethyl-3,4-dihydrothieno[2,3-f][1,4]thiazepin-5(2H)-one 1,1-dioxide]",≤ 10
4,O=C1NCCOc2sc(-c3nc(Nc4cc5c(cc4Cl)CN(C(=O)C(F)(F)F)CC5)ncc3C(F)(F)F)cc21 [compound 70],10 to 50
5,CS(=O)(=O)c1cc(-c2nc(Nc3cc4c(cc3Cl)CN(C(=O)C(F)(F)F)CC4)ncc2C(F)(F)F)sc1C1=CCOCC1 [compound 74],> 500
